We go through two molecules from patent US20110077237A1, “KINASE INHIBITORS” (VERTEX PHARMACEUTICALS INCORPORATED, priority 2007, published 2011).

The test concerns the target PKC theta (Homo sapiens, UniProt Q04759). Description: PKC Theta III assay, similar to PKC theta I with fluorescence read out. In kind it is biochemical. The conditions noted are these: fluorescence read out rather than UV. As for the experimental part:
An assay buffer solution was prepared which consisted of 100 mM HEPES (pH 7.5), 10 mM MgCl2, 25 mM NaCl, 0.1 mM EDTA and 0.01% Brij. […] To 60 μL of this enzyme buffer, in a 384 well plate, was added 2 μL of VRT stock solution in DMSO. The mixture was allowed to equilibrate for 10 mins at 30° C. The enzyme reaction was initiated by the addition of 5 μL stock ATP solution prepared in assay buffer to a final assay concentration of 240 μM. Initial rate data was determined from the rate of change of absorbance at 340 nm (corresponding to stoichiometric consumption of NADH) using a Molecular Devices Spectramax plate reader (Sunnyvale, Calif.) over 15 mins at 30° C. For each Ki determination 12 data points covering the VRT concentration range of 0-20 μM were obtained in duplicate (DMSO stocks were prepared from an initial 10 mM VRT stock with subsequent 1:2 serial dilutions). Ki values were calculated from initial rate data by non-linear regression using the Prism software package (Prism 4.0a, Graphpad Software, San Diego, Calif.).
Compounds tested in an assay similar to PKC theta I above with a fluorescence read out rather than a UV read out gave the following results: D compounds are (2-aminopyridin-3-yl)(6-(1-benzylpiperidin-4-ylamino)pyridin-2-yl)methanone, and (2-aminopyridin-3-yl)(6-(2,3-dihydroxypropylamino)pyridin-2-yl)methanone (naming by ChemDraw Ultre version 10.0).

Chain of PKC theta (Q04759 whole entry): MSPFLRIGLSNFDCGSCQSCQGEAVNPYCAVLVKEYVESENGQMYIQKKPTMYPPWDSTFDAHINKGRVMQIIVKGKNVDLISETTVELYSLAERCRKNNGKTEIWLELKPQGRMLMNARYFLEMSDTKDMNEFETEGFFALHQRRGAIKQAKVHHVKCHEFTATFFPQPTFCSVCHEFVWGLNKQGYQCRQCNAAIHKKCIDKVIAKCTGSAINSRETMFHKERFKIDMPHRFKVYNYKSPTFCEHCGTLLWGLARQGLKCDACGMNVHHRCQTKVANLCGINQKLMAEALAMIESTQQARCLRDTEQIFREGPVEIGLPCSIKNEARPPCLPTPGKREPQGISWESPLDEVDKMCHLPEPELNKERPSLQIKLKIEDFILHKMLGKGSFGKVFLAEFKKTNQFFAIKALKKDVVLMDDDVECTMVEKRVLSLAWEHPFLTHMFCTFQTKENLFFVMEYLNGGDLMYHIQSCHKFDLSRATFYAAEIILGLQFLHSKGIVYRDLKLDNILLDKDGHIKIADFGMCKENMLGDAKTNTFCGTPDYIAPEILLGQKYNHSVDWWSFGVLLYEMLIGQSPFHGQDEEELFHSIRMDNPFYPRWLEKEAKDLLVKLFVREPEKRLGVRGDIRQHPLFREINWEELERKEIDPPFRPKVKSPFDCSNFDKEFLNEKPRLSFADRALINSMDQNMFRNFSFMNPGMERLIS

Broadly, the Ki is a measure of affinity in units of concentration, obtained from inhibition or displacement. Low readings indicate higher affinity, high ones lower affinity. Molecule `Nc1ncccc1C(=O)c1cccc(NC2CCN(Cc3ccccc3)CC2)n1` [(2-aminopyridin-3-yl)(6-(1-benzylpiperidin-4-ylamino)pyridin-2-yl)methanone] displayed a Ki above 2800 nM.
`Nc1ncccc1C(=O)c1cccc(NCC(O)CO)n1` (centres unmarked) [(2-aminopyridin-3-yl)(6-(2,3-dihydroxypropylamino)pyridin-2-yl)methanone] showed a Ki above 2800 nM.
